Four compounds from PMC4904746 (EXCLI Journal, 2013) can be followed below.

Entries after “also recorded” stand apart in the source; their conditions may differ.

In the test the target is α-glucosidase from recombinant Saccharomyces cerevisiae (Saccharomyces cerevisiae, UniProt P53341). Kind of test: α-glucosidase inhibitory activity assay. The class given is biochemical. The settings on record: comparison among the fractions and compounds 1-8 isolated from CCF.
α-glucosidase from recombinant Saccharomyces cerevisiae, sequence (P53341 whole entry): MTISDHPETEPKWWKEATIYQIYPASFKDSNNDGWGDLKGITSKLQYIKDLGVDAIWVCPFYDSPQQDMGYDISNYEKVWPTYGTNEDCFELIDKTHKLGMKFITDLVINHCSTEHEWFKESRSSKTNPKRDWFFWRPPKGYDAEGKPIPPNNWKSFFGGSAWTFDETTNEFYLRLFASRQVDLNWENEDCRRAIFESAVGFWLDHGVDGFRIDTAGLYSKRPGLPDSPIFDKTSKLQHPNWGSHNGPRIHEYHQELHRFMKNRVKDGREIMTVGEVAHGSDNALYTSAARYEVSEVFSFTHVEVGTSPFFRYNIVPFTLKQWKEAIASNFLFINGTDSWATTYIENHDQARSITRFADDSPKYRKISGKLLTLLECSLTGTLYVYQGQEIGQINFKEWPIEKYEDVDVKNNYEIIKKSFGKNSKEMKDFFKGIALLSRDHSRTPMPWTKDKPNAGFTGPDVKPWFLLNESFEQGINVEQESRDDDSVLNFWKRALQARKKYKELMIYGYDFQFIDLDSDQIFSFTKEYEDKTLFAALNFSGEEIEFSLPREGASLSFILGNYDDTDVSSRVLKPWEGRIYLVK
On to `O=c1c(O)c(-c2ccc(O)cc2)oc2cc(O)cc(O)c12` [Compound 3, kaempferol], for which the “α-glucosidase inhibitory activity (comparison in words)” value is given as “higher α-glucosidase inhibitory activity than the flavonoid”. The entry for `O=c1c(O[C@@H]2O[C@H](CO)[C@H](O)[C@H](O)[C@H]2O)c(-c2ccc(O)c(O)c2)oc2cc(O)cc(O)c12` [Compound 4, hyperin] is “more significant inhibitory activity against α-glucosidase than other mono-hydroxy flavonoids”; for `O=c1c(O)c(-c2ccc(O)c(O)c2)oc2cc(O)cc(O)c12` [Compound 6, quercetin] it is “higher α-glucosidase inhibitory activity than the flavonoid; also recorded: more significant inhibitory activity against α-glucosidase than other mono-hydroxy flavonoids; also recorded: highest α-glucosidase inhibitory activity”. As for `O=c1c(O)c(-c2ccc(O)cc2)oc2cc(O[C@@H]3O[C@H](CO)[C@@H](O)[C@H](O)[C@H]3O)cc(O)c12` [Compound 8, kaempferol-7-O-β-D-glucoside], the “α-glucosidase inhibitory activity (comparison in words)” value was “higher α-glucosidase inhibitory activity than the flavonoid”.
